From patent publication US12357645B2, “Drug combination for treatment of gastric cancer” (priority 2023, dated 2025)

Key:
[1] = cited from earlier work
[2] = system: patients with Advanced Gastrointestinal Tumors; test: Phase 1 study of intravenous minnelide prodrug: safety; format: in vivo, human
Description: Intravenous Minnelide Prodrug. Phase 1, Multi-Center, Open-Label, Dose-Escalation, Safety, Pharmacokinetic, and Pharmacodynamic Study of minnelide prodrug given intravenously daily for 21 days followed by 7 days off schedule in patients with Advanced Gastrointestinal Tumors. A second dosing schedule of minnelide prodrug given intravenously QD for 5 days with 2 days off for three weeks followed by a 7-day rest period was also explored during this study.

[3] = system: dogs; test: Definitive toxicity studies in dogs (intravenous, oral gavage); format: in vivo
Protocol: As clinical development of minnelide prodrug was initiated using an intravenous drug product, IND-enabling toxicology studies were conducted in both rats and dogs using the intravenous route of administration. The results of these studies supported first-in-human clinical trials involving intravenous administration of minnelide prodrug to patients with advanced solid tumors. To support the clinical development of a new solid oral dosage form of minnelide prodrug (capsules), exploratory and definitive toxicity studies were conducted with minnelide prodrug in solution via oral gavage in dogs. Taken together, the results of the intravenous and oral toxicity studies conducted with minnelide prodrug indicate that the target organ profile of minnelide prodrug is consistent in both species (rats and dogs) when administered by either route of administration (intravenous or oral).

[4] = system: gastric cancer; conditions: alone or in combination, when properly dosed
Description: Gastric cancer is the most prevalent cancer in South Korea […]. […] Herein, we have evaluated efficacy of minnelide prodrug in combination with paclitaxel in a subcutaneous mouse model of gastric cancer and in a human clinical trial.

[5] = system: MKN45, MKN28I-N-87; test: Subcutaneous gastric cancer models, daily intraperitoneal minnelide prodrug; format: in vivo; conditions: 0.2 mg/kg and 0.4 mg/kg

CC(C)[C@]12O[C@H]1[C@@H]1O[C@]13[C@]1(O[C@H]1C[C@H]1C4=C(CC[C@@]13C)C(=O)OC4)[C@@H]2OCOP(=O)([O-])[O-].[Na+].[Na+] [minnelide prodrug, disodium; [(1S,2S,4S,5S,7S,8R,9R,11S, 13S)-1-methyl-17-oxo-7-propan-2-yl-3,6,10,16-tetraoxaheptacyclo [11.7.0.0^2,4.0^2,9.0^5,7.0^9,11.0^14,18]icos-14 (18)-en-8-yl]oxymethyl phosphate]
aqueous solubility [1]: greater aqueous solubility | Anemia and thrombocytopenia Grade 3 and 4 (drug related), share of patients [2]: 22% | Serious Adverse Events related to the study drug [2]: six | Serious Adverse Events, number [2]: 28 | TEAE cases considered DLTs [2]: two | other possibly related side effects of any grade (nausea, vomiting, diarrhea, constipation, anorexia, stomatitis, cerebellar toxicity, embolism, dyspnea), share of patients [2]: ≤ 3% | patients with Serious Adverse Events [2]: 17 | patients with at least 1 AE considered related to the study drug [2]: 32 | patients with neutropenic fever and neutropenic infection (drug related) [2]: three | deaths in the study ([2]; 42 patients dosed, after study drug ended, within 30-day follow-up, not related to study drug): 6 | patients who discontinued study drug due to TEAEs ([2]; all Grade 3): 3 | resolution of grade 3 and 4 neutropenia after not receiving treatment ([2]; all dose levels): within a couple of days | histopathology of reproductive tract tissues, males and females ([3]; definitive toxicity studies, dogs): adverse, largely irreversible histopathological effects | histopathology of the gastrointestinal tract ([3]; oral gavage for up to 28 consecutive days): No adverse histopathological effects | toxic effects [4]: no significant toxic effects | tumor weights and volumes [5]: markedly decreased tumor weights and volumes
